Experimental data published in PubChem BioAssay (NCI).
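These data come from cells grown in 96-well plates and exposed to compound for 48 hours at five concentrations. Abbreviation: GI50, concentration required for 50% inhibition of growth. TGI: total growth inhibition.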

How the values were obtained:
Experiment in all cases: inhibition of tumour cell growth, NCI panel, 48 h
HL-60(TB) leukemia = system: HL-60(TB) leukemia
SK-MEL-2 melanoma = system: SK-MEL-2 melanoma
HOP-62 NSCLC = system: HOP-62 NSCLC
MOLT-4 leukemia = system: MOLT-4 leukemia
SK-OV-3 ovarian = system: SK-OV-3 ovarian
SW-620 colon = system: SW-620 colon
A498 renal = system: A498 renal
HCC-2998 colon = system: HCC-2998 colon
OVCAR-4 ovarian = system: OVCAR-4 ovarian
PC-3 prostate = system: PC-3 prostate
MDA-MB-435 = system: MDA-MB-435
SNB-75 CNS = system: SNB-75 CNS
EKVX NSCLC = system: EKVX NSCLC
SF-295 CNS = system: SF-295 CNS
UO-31 renal = system: UO-31 renal
RXF 393 renal = system: RXF 393 renal
SN12C renal = system: SN12C renal
SF-539 CNS = system: SF-539 CNS
OVCAR-3 ovarian = system: OVCAR-3 ovarian
MDA-MB-231 breast = system: MDA-MB-231 breast
UACC-257 melanoma = system: UACC-257 melanoma
ACHN renal = system: ACHN renal
CCRF-CEM leukemia = system: CCRF-CEM leukemia
NCI-H460 lung = system: NCI-H460 lung
SK-MEL-28 melanoma = system: SK-MEL-28 melanoma
OVCAR-5 ovarian = system: OVCAR-5 ovarian
UACC-62 melanoma = system: UACC-62 melanoma
786-0 renal = system: 786-0 renal
MALME-3M melanoma = system: MALME-3M melanoma
HS 578T breast = system: HS 578T breast
SK-MEL-5 melanoma = system: SK-MEL-5 melanoma
SNB-19 CNS = system: SNB-19 CNS
U251 CNS = system: U251 CNS
RPMI-8226 leukemia = system: RPMI-8226 leukemia
HCT-116 colon = system: HCT-116 colon
K-562 leukemia = system: K-562 leukemia
NCI-H226 lung = system: NCI-H226 lung
BT-549 breast = system: BT-549 breast
TK-10 renal = system: TK-10 renal
HCT-15 colon = system: HCT-15 colon
SF-268 CNS = system: SF-268 CNS
T-47D breast = system: T-47D breast
NCI/ADR-RES ovarian = system: NCI/ADR-RES ovarian
HOP-92 NSCLC = system: HOP-92 NSCLC
NCI-H23 lung = system: NCI-H23 lung
DU-145 prostate = system: DU-145 prostate
LOX IMVI melanoma = system: LOX IMVI melanoma
M14 melanoma = system: M14 melanoma
A549 NSCLC = system: A549 NSCLC
CAKI-1 renal = system: CAKI-1 renal
OVCAR-8 ovarian = system: OVCAR-8 ovarian

For `CCCCSSC(=S)N(CC)CC`, the GI50 (HL-60(TB) leukemia) was 12.4 µM, the TGI (HL-60(TB) leukemia) was 69.2 µM and the GI50 (SK-MEL-2 melanoma) was 57.7 µM. It also gave a TGI (SK-MEL-2 melanoma) of over 100 µM, a GI50 (HOP-62 NSCLC) of over 100 µM and a TGI (HOP-62 NSCLC) of over 100 µM. For the same compound, the GI50 (MOLT-4 leukemia) was 20.2 µM, the TGI (MOLT-4 leukemia) was 54.9 µM and the GI50 (SK-OV-3 ovarian) was over 100 µM. For the same compound, the TGI (SK-OV-3 ovarian) was over 100 µM, the GI50 (SW-620 colon) was 16.7 µM and the TGI (SW-620 colon) was 32.9 µM. For the same compound, the GI50 (A498 renal) was over 100 µM, the TGI (A498 renal) was over 100 µM and the GI50 (HCC-2998 colon) was over 100 µM. For the same compound, the TGI (HCC-2998 colon) was over 100 µM, the GI50 (OVCAR-4 ovarian) was 16.9 µM and the TGI (OVCAR-4 ovarian) was 32.3 µM. It also gave a GI50 (PC-3 prostate) of 34.3 µM, a TGI (PC-3 prostate) of over 100 µM and a GI50 (MDA-MB-435) of 33.9 µM. It also gave a TGI (MDA-MB-435) of over 100 µM, a GI50 (SNB-75 CNS) of 55.5 µM and a TGI (SNB-75 CNS) of over 100 µM. The GI50 (EKVX NSCLC) was over 100 µM, the TGI (EKVX NSCLC) was over 100 µM and the GI50 (SF-295 CNS) was 37.1 µM. The TGI (SF-295 CNS) was over 100 µM, the GI50 (UO-31 renal) was 20.9 µM and the TGI (UO-31 renal) was 47.6 µM. For the same compound, the GI50 (RXF 393 renal) was 23.3 µM, the TGI (RXF 393 renal) was 49.4 µM and the GI50 (SN12C renal) was 35.7 µM. For the same compound, the TGI (SN12C renal) was over 100 µM, the GI50 (SF-539 CNS) was 21.1 µM and the TGI (SF-539 CNS) was 56.5 µM. For the same compound, the GI50 (OVCAR-3 ovarian) was 20.4 µM, the TGI (OVCAR-3 ovarian) was 42.6 µM and the GI50 (MDA-MB-231 breast) was 32.4 µM. The TGI (MDA-MB-231 breast) was over 100 µM, the GI50 (UACC-257 melanoma) was 79.5 µM and the TGI (UACC-257 melanoma) was over 100 µM. The GI50 (ACHN renal) was 46.9 µM, the TGI (ACHN renal) was over 100 µM and the GI50 (CCRF-CEM leukemia) was 18.4 µM. It also gave a TGI (CCRF-CEM leukemia) of over 100 µM, a GI50 (NCI-H460 lung) of 25.4 µM and a TGI (NCI-H460 lung) of over 100 µM. The GI50 (SK-MEL-28 melanoma) was 23.4 µM, the TGI (SK-MEL-28 melanoma) was 78.3 µM and the GI50 (OVCAR-5 ovarian) was 36.4 µM. The TGI (OVCAR-5 ovarian) was over 100 µM, the GI50 (UACC-62 melanoma) was 34.2 µM and the TGI (UACC-62 melanoma) was over 100 µM. For the same compound, the GI50 (786-0 renal) was over 100 µM, the TGI (786-0 renal) was over 100 µM and the GI50 (MALME-3M melanoma) was 32.4 µM. For the same compound, the TGI (MALME-3M melanoma) was over 100 µM, the GI50 (HS 578T breast) was 38.6 µM and the TGI (HS 578T breast) was over 100 µM. The GI50 (SK-MEL-5 melanoma) was 21 µM, the TGI (SK-MEL-5 melanoma) was over 100 µM and the GI50 (SNB-19 CNS) was over 100 µM. It also gave a TGI (SNB-19 CNS) of over 100 µM, a GI50 (U251 CNS) of 28.8 µM and a TGI (U251 CNS) of over 100 µM. It also gave a GI50 (RPMI-8226 leukemia) of 17.9 µM, a TGI (RPMI-8226 leukemia) of 40.1 µM and a GI50 (HCT-116 colon) of 19 µM. The TGI (HCT-116 colon) was 37 µM, the GI50 (K-562 leukemia) was 17.5 µM and the TGI (K-562 leukemia) was 40.1 µM. For the same compound, the GI50 (NCI-H226 lung) was over 100 µM, the TGI (NCI-H226 lung) was over 100 µM and the GI50 (BT-549 breast) was 26.1 µM. For the same compound, the TGI (BT-549 breast) was 75.9 µM, the GI50 (TK-10 renal) was 41.2 µM and the TGI (TK-10 renal) was over 100 µM. It also gave a GI50 (HCT-15 colon) of 73.6 µM, a TGI (HCT-15 colon) of over 100 µM and a GI50 (SF-268 CNS) of 41.7 µM. It also gave a TGI (SF-268 CNS) of over 100 µM, a GI50 (T-47D breast) of 90.5 µM and a TGI (T-47D breast) of over 100 µM. It also gave a GI50 (NCI/ADR-RES ovarian) of 34.3 µM, a TGI (NCI/ADR-RES ovarian) of over 100 µM and a GI50 (HOP-92 NSCLC) of 26.9 µM. It also gave a TGI (HOP-92 NSCLC) of over 100 µM, a GI50 (NCI-H23 lung) of over 100 µM and a TGI (NCI-H23 lung) of over 100 µM. For the same compound, the GI50 (DU-145 prostate) was 53.9 µM, the TGI (DU-145 prostate) was over 100 µM and the GI50 (LOX IMVI melanoma) was 20.6 µM. For the same compound, the TGI (LOX IMVI melanoma) was 48.8 µM, the GI50 (M14 melanoma) was 25.7 µM and the TGI (M14 melanoma) was 87 µM. For the same compound, the GI50 (A549 NSCLC) was over 100 µM, the TGI (A549 NSCLC) was over 100 µM and the GI50 (CAKI-1 renal) was 18.3 µM. It also gave a TGI (CAKI-1 renal) of 54.5 µM, a GI50 (OVCAR-8 ovarian) of 34.3 µM and a TGI (OVCAR-8 ovarian) of over 100 µM.
